Reference: patent publication US6935334B2, “Enhancing therapeutic effectiveness of nitric oxide inhalation” (The General Hospital Corporation, priority 2000, dated 2005)

Legend:
[1] = test system: hypoxic pulmonary vasoconstriction (HPV) in mice; assay: Change in incremental left pulmonary vascular resistance (ΔiLPV) in response to LMBO, a measure of HPV (Example 2, FIG. 8); type: in vivo, mouse
Method: We performed experiments on the change in incremental left pulmonary vascular resistance, ΔiLPV, in response to LMBO—a measure of HPV. HPV was impaired in wild-type mice challenged with endotoxin (FIG. 8). HPV was preserved in endotoxin-challenged mice treated with N-acetylcysteine at 500 mg/kg, but not 150 mg/kg (intraperitoneal administration simultaneously with endotoxin).

[2] = test system: isolated-perfused mouse lungs preconstricted with U46619; assay: Pulmonary vasodilator response to NO inhalation in isolated, perfused and ventilated mouse lungs preconstricted with U46619; type: in vivo; conditions: for impairment of responsiveness to NO inhalation: wild-type mice treated with endotoxin, scavengers of reactive oxygen and nitrogen species; for vasodilator response to NO inhalation, compared to that in control mice: endotoxin-challenged (LPS 50 mg/kg i.p.) wild-type mice treated with NAC 150 mg/kg i.p. immediately and 3.5 hours later, lungs isolated 16 hours after endotoxin
Method: Isolated, Perfused, and Ventilated Mouse Lung Model Mice were killed by intraperitoneal injection of pentobarbital sodium (200 mg/kg body weight) and placed in a 37° C. water-jacketed chamber (Isolated Perfused Lung Size 1 Type 839; Hugo-Sachs Elektronik, March-Hugstetten, Germany). The trachea was isolated and intubated, and the lungs were ventilated with 21% O2, 6% CO2 and 73% N2 using a volume-controlled ventilator (model 687; Harvard Apparatus, South Natick, Mass.) at a ventilatory rate of 85 breaths/min and 2 cm H2O end-expiratory pressure. The tidal volume was adjusted to provide a peak inspiratory pressure of 10 cm H2O throughout each study. The lungs were exposed via a midline sternotomy, and a ligataure was placaed around the aorticopulmonary outflow tract. After injection of 10 IU heparin into the right ventricle, the pulmonary artery was cannulated with a stainless steel cannula (1 mm ID) via the right ventricle. The pulmonary venous effluent was drained via a stainless steel cannula (1 mm ID) placed through the apex of the left ventricle across the mitral valve and into the left atrium. Left atrial pressure was maintained at 2 mmHg. Lungs were perfused at a constant flow (50 ml. kg body weight^−1. min^−1; Ismatec Reglo-Analogue roller pump; Laboratoriumstechnik GmbH, Wertheim-Mondfeld, Germany) with a non-recirculating system at 37° C. The perfusate used was Hanks' Balanced Salt Solution (GibcoBRL, Grand Island, N.Y.) containing 1.26 mM CaCl2, 5.33 mM KCl, 0.44 mM KH2PO4, 0.50 mM MgCl2, 0.41 mM MgSO4, 138.0 mM NaCl, 4.0 mM NaHCO3, 0.3 mM Na2HPO4, and 5.6 mM glucose. Bovine serum albumin, 5%, and dextran, 5% (both from Sigma Chemical Co., St. Louis, Mo.), were added to the perfusate to prevent pulmonary edema, in the isolated, perfused, and ventilated rat lung, essentially as described in Holzmann et al., 1996, Am. J. Physiol. 271:L981-L986. Indomethacin, […] (Sigma Chemical Co.), and 1 mM L-NAME (Sigma Chemical Co.) were added to the perfusate to inhibit endogenous prostaglandin and NO synthesis, respectively. Sodium bicarbonate was added to adjust the perfusate pH to 7.34-7.43.
Pulmonary artery pressure (PAP) and left atrial pressure were measured via saline-filled membrane pressure transducers (Argon, Athens, Tex.) connected to a side port of the inflow and outflow cannulae, respectively. Airway pressure (Paw) was measured using a differential pressure transducer (model MP-45-32-871; Validyne Engineering Corp., Northridge, Calif.) connected to the inspiratory limb just before the Y piece. Pressure transducers were connected to a biomedical amplifier (Hewlett Packard 7754B, Andover, Mass.), and data were recorded at 150 Hz on a personal computer using an analog-to-digital interface with a data acquisition system (DI-220; Dataq Instruments, Akron, Ohio). The system was calibrated before each experiment.
For NO inhalation, NO gas (800 or 80 ppm NO in nitrogen, Airco, Murray Hill, N.J.) was blended (Oxygen Blender; Bird Corporation, Palm Springs, Calif.) with oxygen, carbon dioxide, and nitrogen to achieve a final concentration of 21% O2, 6% CO2, and the desired NO concentration. NO and higher oxidative states of NO (NOx; CLD 700 AL; Eco Physics, Dürmten, Switzerland), oxygen (Hudson Ventronics Ddivision, Temecula, Calif.), and carbon dioxide (Datex CO2 monitor; Puritan-Bennett Corpration, Los Angeles, Calif.) concentrations were monitored continuously.
Pulmonary Vascular Response to NO inhalation after Lipopolysaccharide Challenge Wild-type mice and NOS2-deficient mice were injected intraperitoneally with 50 mg/kg body weight Escherichia coli 0111:B4 lipopolysaccharide (LPS; Difco Laboratories, Detroit, Mich.) dissolved in saline 16 h before isolated lung perfusion. This time point was chosen based on previous studies in rats (Holzmann et al., 1996, Am. J. Physiol. 271:L981-L986). Untreated wild-type and NOS2-deficient mice served as controls. […]

[3] = test system: hypoxic pulmonary vasoconstriction (HPV) in mice; assay: Percent increase in left pulmonary vascular resistance (LPVR) after LMBO, one-lung hypoxia model (Example 3, FIG. 13); type: in vivo, mouse; conditions: endotoxin-challenged wild-type mice
Method: Wild-type (SV129B6/F1) mice and 5LO-deficient mice were anesthetized and studied at thoracotomy. Left pulmonary artery flow (QLPA) and pulmonary (PPA) and systemic (PSA) artery pressures were measured continuously.
HPV was assessed as the percent increase in left pulmonary vascular resistance (the slope of the P/Q-relationship, LPVR) after left main bronchus occlusion (LMBO). LMBO increased LPVR by 99±13% in 5LO deficient mice, and by 100±11% in wild-type mice.

[4] = test system: pulmonary vasculature of wild-type mice; assay: Pulmonary vasoconstrictor response to intravenous angiotensin II; type: in vivo, mouse; conditions: for PVR: 5.0 μg/kg per minute angiotensin II
Method: Group 6: pulmonary vascular response to increasing doses of intravenous angiotensin II. SV129/B6F1 wild-type mice treated with endotoxin (n=5) or with saline (n=3) were studied 22 hours after the challenge.
Infusion of angiotensin II. Increasing doses of angiotensin II (0.05, 0.5, and 5.0 ng/g bw per minute) dissolved in sterile normal saline were infused via the central venous catheter using an infusion pump (Pump 11; Harvard Apparatus Co., South Natick, Mass.). PLA, PPA, PSA, and QLTAF were continuously measured.

## [Cl-].[Mn+3].[O-]c1ccccc1C=NCCN=Cc1ccccc1[O-] [EUK-8]
[1]; endotoxin-challenged mice treated with EUK-8
  HPV (ΔiLPV in response to LMBO): completely preserved
[2]
  impairment of responsiveness to NO inhalation: prevented impairment of responsiveness to NO inhalation

## CN(C)C(=O)CCSC(SCCC(=O)O)c1cccc(/C=C/c2ccc3ccc(Cl)cc3n2)c1 (stereo not drawn) [MK571]
[3]
  HPV (LMBO-induced increase in left PVR): preserved

## CC(C)c1ccc2c(c1)c(SC(C)(C)C)c(CC(C)(C)C(=O)O)n2Cc1ccc(Cl)cc1 [MK886]
[3]
  HPV (LMBO-induced increase in left PVR): preserved

## CC(=O)N[C@@H](CS)C(=O)O [N-acetylcysteine]
[1]; endotoxin-challenged mice, 150 mg/kg intraperitoneally simultaneously with endotoxin
  HPV (ΔiLPV in response to LMBO): not
[1]; endotoxin-challenged mice, 500 mg/kg intraperitoneally simultaneously with endotoxin
  HPV (ΔiLPV in response to LMBO): preserved
[1]; endotoxin-challenged wild-type mice treated with N-acetylcysteine and exposed to 20 ppm NO for 22 hours
  HPV: not impaired
[2]; 0.4 ppm NO
  vasodilator response to NO inhalation, compared to that in control mice: 75±14%
[2]; 4.0 ppm NO
  vasodilator response to NO inhalation, compared to that in control mice: 103±15%
[2]; 40 ppm NO
  vasodilator response to NO inhalation, compared to that in control mice: 91±7%
[2]; endotoxin-challenged, NAC-treated mice exposed to 20 ppm NO for 16 hours
  responsiveness to NO inhalation after prolonged NO exposure: preserved
[2]; two doses of 150 mg/kg i.p., simultaneously with lipopolysaccharide and 3.5 hours later
  lipopolysaccharide-induced attenuation of vasoreactivity to NO inhalation (FIG. 5): completely protected
[2]
  impairment of responsiveness to NO inhalation: prevented impairment of responsiveness to NO inhalation

## CNC(=O)NC [dimethylurea]
[2]
  impairment of responsiveness to NO inhalation: prevented impairment of responsiveness to NO inhalation

## angiotensin II: vasoconstrictor infused intravenously to test pulmonary vascular contractile function (DRVYIHPF; Angiotensin-2; UniProt P01019 25-32, looked up)
[4]; endotoxin-challenged wild-type mice, baseline 55±11
  PVR: 174±40 mmHg·min·g·mL^−1
[4]; saline-treated wild-type mice without endotoxin, baseline 74±24
  PVR: 184±25 mmHg·min·g·mL−1
[4]; saline-treated and endotoxin-treated wild-type mice (either group)
  PLA in response to angiotensin II infusion: did not change

B1: catalase: scavenger of reactive oxygen and nitrogen species (anti-ROS agent) (protein, UniProt P04040 2-527, looked up)
Catalase: ADSRDPASDQMQHWKEQRAAQKADVLTTGAGNPVGDKLNVITVGPRGPLLVQDVVFTDEMAHFDRERIPERVVHAKGAGAFGYFEVTHDITKYSKAKVFEHIGKKTPIAVRFSTVAGESGSADTVRDPRGFAVKFYTEDGNWDLVGNNTPIFFIRDPILFPSFIHSQKRNPQTHLKDPDMVWDFWSLRPESLHQVSFLFSDRGIPDGHRHMNGYGSHTFKLVNANGEAVYCKFHYKTDQGIKNLSVEDAARLSQEDPDYGIRDLFNAIATGKYPSWTFYIQVMTFNQAETFPFNPFDLTKVWPHKDYPLIPVGKLVLNRNPVNYFAEVEQIAFDPSNMPPGIEASPDKMLQGRLFAYPDTHRHRLGPNYLHIPVNCPYRARVANYQRDGPMCMQDNQGGAPNYYPNSFGAPEQQPSALEHSIQYSGEVRRFNTANDDNVTQVRAFYVNVLNEEQRKRLCENIAGHLKDAQIFIQKKAVKNFTEVHPDYGSHIQALLDKYNAEKPKNAIHTFVQSGSHLAAREKANL
[2]
  impairment of responsiveness to NO inhalation: prevented impairment of responsiveness to NO inhalation
